US20120083505A1, “Use of opioid receptor antagonists for acute treatment of paraphilic arousal states” (priority 2009, published 2012)

Assays:
[1] = test system: obsessive sexual desire; conditions: two cases; regular fixed dosage regimen over a longer period; after several treatments; cited from earlier work
[2] = test system: patients with paraphilic patterns of sexual excitation/arousal; test: Case reports: acute nasal naloxone in two paedophilic patients, self-rated impulse control; assay type: in vivo, human; conditions: one or two puffs of nasal spray, 0.2 mg Naloxonhydrochloride per puff
Description: In the clinical application (two patients with paraphilic patterns of sexual excitation/arousal, both paedophiles, but with individual symptomatology) the following observations were made:
The patient is a person with paedophile inclination towards sexually immature girls (in addition to their predominant orientation towards adult women). In their first marriage they had repeatedly abused the child of their spouse […] (touching the genitals of the child, as well as having themself touched until reaching the climax). These crimes have not yet become known or led to any form of legal prosecution, and this first marriage is divorced since several years. Owing to their job as music teacher the patient was increasingly in contact with girls of the preferred age during the recent two years; the patient was very worried (and this worry was justified) that they might exploit the situation for the sexual abuse of their pupils. In the course of treatment at the Institute for Sexual Medicine of the Charité University Clinic of Berlin the patient has changed their professional field so that they are mainly involved in the treatment of grown-ups. […]

| SMILES | frequency of obsessive sexual desire [1] | sexual interest in the child ([2]; patient 1 (marked expression of symptoms)) | sexual interest in child one ([2]; patient 2 (moderate expression of symptoms)) |
| --- | --- | --- | --- |
| O=C1CC[C@@]2(O)[C@H]3Cc4ccc(O)c5c4[C@@]2(CCN3CC2CC2)C1O5 (stereo partly drawn) [Naltrexon, 17-cyclopropylmethyl-3,14-dihydroxy-4,5-epoxy-morphinan-6-on] | reduction in frequency of obsessive sexual desire could be observed |  |  |
| C=CCN1CC[C@]23c4c5ccc(O)c4O[C@H]2C(=O)CC[C@@]3(O)[C@H]1C5 [naloxone, 17-allyl-3,14-dihydroxy-4,5-epoxy-morphinan-6-on] |  | sufficient reduction of their sexual interest in the child | reduction of their sexual interest in child one |
